Test results reported in patent publication US8258100B2, “Ligand/lytic peptide methods of use” (Board of Supervisors of Louisiana State University and …, priority 1997, dated 2012).

Legend:
[1] = system: bovine small luteal cells; experiment: in vitro lysis of bovine small luteal cells (Trypan Blue exclusion, lactic dehydrogenase release); type: cell-based, cattle; details: 22 hr incubation
Experimental: We studied in vitro lysis of bovine luteal cells with GnRH-hecate conjugate and with hecate-bLH conjugate (SEQ. ID NO. 12). (The bLH component of the conjugate is a 15-mer fragment of the beta chain of luteinizing hormone, SEQ. ID NO. 11). Small luteal cells were collected from cattle corpora lutea post-slaughter.
Small luteal cells in culture were incubated with one of the following treatments for 22 hours, and were then examined for viability using Trypan Blue exclusion and release of lactic dehydrogenase.

[2] = system: DU145 cells; experiment: in vitro lysis of human prostate cancer cells, Trypan blue exclusion; type: cell-based; details: 22 hours; GnRH-hecate 50 μM; free hecate 30 μM; hecate-bLH 90 or 60 μM
Excerpt: LNCaP FGC and DU145 human prostate cancer cell lines were purchased from the American Type Culture Collection (ATCC, Rockville Md.), ATCC accession numbers CRL 1740 and HTB-81, respectively. The LNCaP FGC adenocarcinoma cell line was originally obtained from a person. LNCaP FGC cells are sensitive to dihydrotestosterone and to estrogens (A+). The DU145 carcinoma was originally isolated from the brain of a person with metastatic carcinoma of the prostate; this cell line is not sensitive to steroid hormones (A−).
Cells were detached from culture flasks, and 1000 cells/well were transferred to 24 well culture plates. The cells were incubated for 24 hours with 10% calf serum. Cells were subsequently incubated without serum for 48 hours. Cells were then incubated for 22 hours with one of the following treatments:
Trypan blue exclusion was used to assess viability of the cells after treatment. […] However, treatment with a lytic peptide alone may not be selective in vivo unless specific cell types are separately stimulated, for example by hormones controlling their activity.

[3] = system: bovine granulosa cells; experiment: in vitro lysis of bovine granulosa cells; type: cell-based; details: hecate alone, versus small luteal cells
Excerpt: We also studied in vitro lysis of bovine granulosa cells with GnRH-hecate conjugate and with hecate-bLH conjugate. Granulosa cells were isolated from bovine pre-ovulatory follicles. (Granulosa cells are hormonally active cells with numerous LH receptors.) Our experiments with granulosa cells were otherwise generally similar to those described above for Examples 24-31.

[4] = system: sexually mature female rats; experiment: sexually mature female rats, double intravenous treatment, necropsy two weeks later; type: in vivo, rat; details: IV twice 24 hours apart, two weeks after, GnRH/hecate 2 x 0.5 mg, GnRH 162 μg then 15 minutes later hecate 337 μg
Excerpt: Eighteen sexually mature, mixed breed, female rats were randomly assigned to one of six groups containing three rats each. Each group of rats received a double treatment intravenously, as described below. Two weeks after the treatment, the rats were sacrificed and necropsied. The reproductive and endocrine organs were sectioned, weighed, and examined histologically.

[5] = system: pituitary basophilic (gonadotropic) cells; experiment: rat pituitary gland sections in tissue culture, histology after treatment; type: cell-based; details: ten hours after treatment, 37° C.; GnRH 5 ng/mL; hecate 50 μM; GnRH 5 ng/mL 15 minutes, wash, then hecate 50 μM; modified GnRH/hecate 50 μM
Experimental: The pituitary gland of an adult female rat was harvested and divided into six sections of approximately equal size. One section was placed in each of six wells containing tissue culture medium at 37° C. A different treatment was applied to each well, as described below. Ten hours after treatment, the tissue from each well was fixed, and the histology of each was examined microscopically.

“hecate: amphipathic lytic peptide; synthetic peptide analog of melittin (SEQ. ID NO. 2) (FALALKALKKALKKLKKALKKAL) [reference compound]” was tested, and the “cell death of small luteal cells” value ([1]; 1 μM) was “did not differ significantly from negative control”, the “killing of small luteal cells” value ([1]; 5 μM) was “approximately 50%” and the “killing of small luteal cells” value ([1]; 10 μM) was “Significant killing”. For the same substance, the “killing of cells (viability)” value [2] was “killed by hecate alone”, the “susceptibility of granulosa cells to killing” value [3] was “much more susceptible to killing by hecate alone than were the small luteal cells” and the “ovarian function / histology” value [4] was “normal ovarian function”. For the same substance, the “histology of pituitary tissue after treatment” value [5] was “appeared normal”.
